Results on 19 molecules are retold here after patent US10167313B2, “Selective caspase inhibitors and uses thereof” (Genesis Technologies Limited, priority 2008, dated 2019).

Molecules are shown by their SMILES. Where a name gives a salt, the structure may show the parent alone. Read-outs that look alike come from different tables or passages of the source. Non-standard residues stand in square brackets, D forms with d. Residues, ends and D or L forms follow the SMILES beside them. *: point of attachment. Phg = N[C@H](C(=O)O)c1ccccc1; Cbz = O=C(OCc1ccccc1)*; OtBu = CC(C)(C)O* A value given as a limit tells only on which side of the number the result lay.

The target in one test is caspase-9 (Homo sapiens (Human), UniProt P55211). Put plainly: Caspase-9 Inhibitor Drug Screening Kit, fluorometric enzymatic assay.
In a further test the test system is Hela cells. Put plainly: Inhibition of proteolytic cleavage of PARP in staurosporine-treated live Hela cells. Type of test: cell-based. Here is the method:
To test the efficacy of caspase-3 inhibitors at the cellular level, the ability of selected compounds to inhibit the proteolytic cleavage of PARP (poly ADP-ribose polymerase) was evaluated in live Hela cells.
Briefly, in this assay Hela cells are seeded in 96 well plates and incubated for 4 hours with staurosporine, a well characterized inducer of apoptosis, alone or together with different concentrations of compound (50, 25, 10 and 3 uM). After formaldehyde-based fixation, the cells are stained with a fluorescein-labeled anti-cleaved PARP antibody (Cell signaling, Cat#: 9547) and counterstained with Hoechst33342 (Invitrogen, Cat#: H3570) to mark all nuclei. Fluorescence images are taken on a Cellomics™ microscope system (Thermo Scientific, Pittsburgh, USA) with the Hoechst stain in the blue channel and the cleaved PARP antibody stain in the green channel. The percentage of cleaved PARP positive cells is determined by calculating the ratio between nuclei with a cleaved PARP antibody staining above a certain threshold and all (Hoechst positive) nuclei. The efficacy of caspase-3 inhibition is determined by calculating the ratio between cleaved PARP positive cells after staurosporine incubation together with compounds and staurosporine incubation without compounds.

In the next test the target is caspase-5 (Homo sapiens (Human), UniProt P51878). Nature of the test: Caspase-5 Inhibitor Drug Screening Kit, fluorometric enzymatic assay. To be noted: read-out: Caspase enzymatic activity, IC50 (uM) Caspase 5; 30-minute incubation at 37° C., AFC liberation.
The target of a further test is caspase-7 (Homo sapiens (Human), UniProt P55210). Nature of the test: Caspase-7 Inhibitor Drug Screening Kit, fluorometric enzymatic assay.
A further test concerns the target caspase-3 (Homo sapiens (Human), UniProt P42574). Nature of the test: Caspase-3 Inhibitor Drug Screening Kit, fluorometric enzymatic assay. Type of test: biochemical. The note with it: for IC50: 30-minute incubation at 37° C., AFC liberation.
The next test deals with caspase-1 (Homo sapiens (Human), UniProt P29466). Put plainly: Caspase-1 Inhibitor Drug Screening Kit, fluorometric enzymatic assay. To be noted: read-out: Caspase enzymatic activity, IC50 (uM) Caspase 1; 30-minute incubation at 37° C., AFC liberation.
The next test deals with Caspase 3/7 (Glo3/7). Put plainly: Glo3/7 assay.
Setting [1] is: read-out: Caspase enzymatic activity, IC50 (uM) Caspase 9, 30-minute incubation at 37° C., AFC liberation.
The mark [2] stands for this setting: Homo sapiens, 50 uM, relative to DEVDFMK, read-out: % of inhibition with compound relative to DEVDFMK.
The mark [3] stands for this setting: Homo sapiens, read-out: % inhibition of PARP cleavage at 50 uM compound, staurosporine 4 hours, 50 uM compound.
Setting [4] is: read-out: Caspase enzymatic activity, IC50 (uM) Caspase 7, 30-minute incubation at 37° C., AFC liberation.

Broadly, the IC50 is the concentration needed to halve the response being measured. As usually defined, the inhibition is the change of the read-out against control, counted positive when it falls.

caspase-1, sequence (P29466 120-297): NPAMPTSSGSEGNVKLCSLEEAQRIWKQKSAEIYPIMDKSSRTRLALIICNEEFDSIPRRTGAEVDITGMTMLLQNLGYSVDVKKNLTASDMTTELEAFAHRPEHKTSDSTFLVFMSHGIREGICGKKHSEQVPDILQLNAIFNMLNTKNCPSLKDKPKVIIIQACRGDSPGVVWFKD
caspase-1, sequence (P29466 317-404): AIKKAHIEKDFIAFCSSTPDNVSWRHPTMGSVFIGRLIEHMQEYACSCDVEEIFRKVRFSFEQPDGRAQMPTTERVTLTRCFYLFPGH
caspase-3, sequence (P42574 29-175): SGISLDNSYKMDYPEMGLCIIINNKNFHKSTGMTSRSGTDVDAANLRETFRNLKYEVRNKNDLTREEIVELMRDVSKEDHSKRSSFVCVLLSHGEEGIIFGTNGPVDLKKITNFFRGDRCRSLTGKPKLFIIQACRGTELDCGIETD
caspase-3, sequence (P42574 176-277): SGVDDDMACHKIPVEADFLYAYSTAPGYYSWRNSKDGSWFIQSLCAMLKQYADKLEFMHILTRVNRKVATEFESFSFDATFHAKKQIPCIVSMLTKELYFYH
caspase-9, sequence (P55211 1-315): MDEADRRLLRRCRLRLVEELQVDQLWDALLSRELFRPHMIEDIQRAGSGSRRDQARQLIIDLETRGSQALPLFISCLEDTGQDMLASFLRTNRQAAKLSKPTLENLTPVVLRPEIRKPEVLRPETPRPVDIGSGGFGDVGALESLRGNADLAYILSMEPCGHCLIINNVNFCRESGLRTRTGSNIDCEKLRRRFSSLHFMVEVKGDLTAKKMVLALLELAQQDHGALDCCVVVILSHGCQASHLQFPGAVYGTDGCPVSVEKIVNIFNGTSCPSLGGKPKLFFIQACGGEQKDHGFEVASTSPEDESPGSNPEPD
caspase-9, sequence (P55211 331-416): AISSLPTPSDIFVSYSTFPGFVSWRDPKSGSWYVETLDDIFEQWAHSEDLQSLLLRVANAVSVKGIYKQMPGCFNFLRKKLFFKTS
caspase-5, sequence (P51878 137-327): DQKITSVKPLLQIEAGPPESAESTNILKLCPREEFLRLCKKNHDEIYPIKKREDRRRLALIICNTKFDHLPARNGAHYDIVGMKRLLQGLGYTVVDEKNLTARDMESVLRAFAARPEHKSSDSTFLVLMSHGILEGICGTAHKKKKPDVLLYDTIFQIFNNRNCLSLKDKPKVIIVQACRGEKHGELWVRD
caspase-5, sequence (P51878 347-434): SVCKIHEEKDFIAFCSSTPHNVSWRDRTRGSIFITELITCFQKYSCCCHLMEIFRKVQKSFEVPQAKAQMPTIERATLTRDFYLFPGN
caspase-7, sequence (P55210 24-198): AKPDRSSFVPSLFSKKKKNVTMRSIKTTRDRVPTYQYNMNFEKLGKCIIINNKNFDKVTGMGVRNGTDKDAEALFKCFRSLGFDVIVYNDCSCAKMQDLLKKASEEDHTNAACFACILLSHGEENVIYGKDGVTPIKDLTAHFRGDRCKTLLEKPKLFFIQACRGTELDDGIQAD
caspase-7, sequence (P55210 207-303): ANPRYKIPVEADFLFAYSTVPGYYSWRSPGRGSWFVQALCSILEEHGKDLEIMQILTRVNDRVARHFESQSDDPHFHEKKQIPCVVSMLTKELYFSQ
Procedure for caspase-1: (§1) The level of inhibition of caspase-1, -3, -5, -7, -9 activity was determined by comparison of the relative fluorescence intensity in samples with or without the compound.
Procedure for caspase-3: as §1
Procedure for caspase-5: as §1
Procedure for caspase-7: as §1
Procedure for caspase-9: as §1

As to `CC(C)[C@H](NC(=O)[C@H](Cc1c[nH]c2ccccc12)NC(=O)[C@H](CC(=O)O)NC(=O)OCc1ccccc1)C(=O)N[C@H](/C=C/S(C)(=O)=O)CC(=O)O` [Compound 88, Z-Asp-Trp-Val-Aspmethyl vinyl sulfone], the IC50 on caspase-9 (setting [1]) and at caspase-5 was more than 3.33 µM in each case. In addition, the inhibition at 50 µM in the test with Hela cells (setting [2]) was determined as 50%; in the test with Hela cells (setting [3]), 45%.

On to `CC(C)[C@H](NC(=O)[C@H](CCC(=O)O)NC(=O)[C@H](CC(=O)O)NC(=O)OCc1ccccc1)C(=O)N[C@H](/C=C/S(C)(=O)=O)CC(=O)O` [Compound 59, Z-Asp-Glu-Val-Aspmethyl vinyl sulfone], for which the IC50 against caspase-9 was 0.509 µM; against caspase-7 it was 0.042 µM; on caspase-5, more than 3.33 µM. Moreover, the values for the inhibition at 50 µM with Hela cells (setting [2]) and in the test with Hela cells (setting [3]) were 70% and 45%, respectively. Besides, the “effectivity in inhibiting PARP cleavage (in words)” value in the test with Hela cells (relative to DEVD-fmk) is listed as “showing effectivity”.

With `CC(C)(C)OC(=O)C[C@H](N)/C=C/S(C)(=O)=O.Cc1ccc(S(=O)(=O)O)cc1` (stereo in doubt) [Compound 33, Asp(β-tert-butyl)methyl vinyl sulfone tosyl salt], at caspase-3, the “activity against caspase-3 (in words)” value is on record as “devoid of any activity” and the concentration for half-maximal inhibition (IC50) is more than 10 µM.

In the case of `COC(=O)CC[C@H](NC(=O)[C@H](CC(=O)OC)NC(=O)OCc1ccccc1)C(=O)N[C@H](C(=O)N[C@@H](CC(=O)OC)C(=O)CF)C(C)C` [DEVD-fmk, reference compound], the inhibition at 50 µM in the test on Hela cells (setting [3]) stood at 85%. This molecule also registered an IC50 in the test with Hela cells (Homo sapiens, staurosporine) of 20 µM.

For `Cc1ccc(S(=O)(=O)N[C@@H](Cc2ccc3ccccc3n2)C(=O)N[C@H](C(=O)N[C@H](/C=C(\Cl)S(C)(=O)=O)CC(=O)O)C(C)C)cc1` [Compound 50, Ts-Ala(2′quinolyl)-Val-Asp- αchlorovinyl methylsulfone], at caspase-3, the “activity against caspase-3 (in words)” value is recorded as “The same result was observed” and the IC50 is more than 3.33 µM. The concentration for half-maximal inhibition (IC50) on caspase-1 was more than 3.33 µM.

For `CC(C)[C@H](NC(=O)[C@@H](Cc1ccc2ccccc2n1)NC(=O)[C@H](CC(=O)O)NC(=O)OCc1ccccc1)C(=O)N[C@H](/C=C/S(=O)(=O)c1ccccc1)CC(=O)O` (stereo in doubt) [Compound 70, Z-Asp-(D,L Ala(2′-quinolyl))-Val- Aspphenyl vinylsulfone], the IC50 at caspase-9 (setting [1]) is more than 10 µM; on caspase-3 it was 0.3 µM; at caspase-7 (setting [4]), more than 10 µM; on caspase-5 it was more than 10 µM.

In the case of `CC(C)[C@H](NC(=O)[C@@H](NC(=O)[C@H](CC(=O)OC(C)(C)C)NC(=O)OCc1ccccc1)c1ccccc1)C(=O)O` [Compound 16, Z-Asp(β-tert-Butyl)-Phg-Val-OH.] (Cbz-Asp(OtBu)-[Phg]-Val-OH), at caspase-3, the “activity against caspase-3 (in words)” value is given as “devoid of any activity” and the IC50 is more than 2 µM.

`CC(C)[C@H](NC(=O)OCc1ccccc1)C(=O)N[C@H](/C=C/S(C)(=O)=O)CC(=O)O` [Compound 61, Z-Val-Aspmethyl vinyl sulfone]: the IC50 at caspase-9 (setting [1]), on caspase-3, on caspase-7 (setting [4]), on caspase-1 and on caspase-5 was more than 3.33 µM throughout. Besides, the inhibition at 50 µM in the test on Hela cells (setting [2]) and in the test on Hela cells (setting [3]) was 5% each time. Moreover, the “activity against caspase-3 (in words)” value at caspase-3 is listed as “abolished completely the activity”.

`CC(C)[C@H](NC(=O)[C@@H](Cc1ccc2ccccc2n1)NC(=O)[C@H](CC(=O)O)NC(=O)OCc1ccccc1)C(=O)N[C@H](/C=C/S(C)(=O)=O)CC(=O)O` (stereo in doubt) [Compound 71, Z-Asp-(D,L Ala(2′-quinolyl))-Val- Aspmethyl vinylsulfone]: the concentration for half-maximal inhibition (IC50) at caspase-9 (setting [1]) is more than 10 µM; at caspase-7 (setting [4]), 8.9 µM; at caspase-1, more than 10 µM; at caspase-5, more than 10 µM.

For the molecule `COC(=O)C[C@@H](/C=C/S(C)(=O)=O)NC(=O)[C@@H](NC(=O)[C@@H](NC(=O)[C@H](CC(=O)OC)NC(=O)OCc1ccccc1)C1Cc2ccccc2C1)C(C)C` [Compound 51, Z-Asp(β-methyl)-Indanylglycine-Val- Asp(β-methyl)methyl vinyl sulfone], the IC50 at caspase-9 (setting [1]), on caspase-7 (setting [4]), on caspase-1 and on caspase-5 was more than 3 µM in each case. For the same molecule, the inhibition at 50 µM with Hela cells (setting [2]) was 80%; in the test on Hela cells (setting [3]), 65%.

`CC(C)[C@H](NC(=O)[C@H](CCC(=O)O)NC(=O)[C@H](Cc1ccc(O)cc1)NC(=O)OCc1ccccc1)C(=O)N[C@H](/C=C/S(C)(=O)=O)CC(=O)O` [Compound 82, Z-Tyr-Glu-Val-Aspmethyl vinyl sulfone]: the IC50 on caspase-7 (setting [4]) is more than 5 µM; at caspase-5 it was more than 3 µM.

As for `CC(C)[C@H](NC(=O)[C@H](Cc1ccc2ccccc2n1)NC(=O)[C@H](CC(=O)O)NC(=O)OCc1ccccc1)C(=O)N[C@H](/C=C/S(=O)(=O)Oc1ccccc1)CC(=O)O` [Compound 65, Z-Asp-Ala(2′-quinolyl)-Val-Aspphenoxy vinyl sulfone], the results for the inhibition at 50 µM with Hela cells (setting [2]) and in the test on Hela cells (setting [3]) were 40% and 30%, respectively. The IC50 against Caspase 3/7 (Glo3/7) is 0.2 µM; on caspase-5, more than 3.33 µM.

With `CC(C)(C)OC(=O)C[C@H](N)/C=C/S(=O)(=O)c1ccccc1` [Compound 37, Asp Vinyl phenyl sulfone tosyl salt], the IC50 at caspase-3 is more than 2 µM.

With `CC(C)[C@H](NC(=O)[C@H](Cc1ccc2ccccc2n1)NC(=O)[C@H](CC(=O)OC(C)(C)C)NC(=O)OCc1ccccc1)C(=O)N[C@H](/C=C/S(=O)(=O)N1CCOCC1)CC(=O)OC(C)(C)C` [Compound 66, Z-Asp(β-tert-Butyl)-Ala(2′-quinolyl)-Val-Asp(β-tert-Butyl)morpholine vinyl sulfone], in the test with Hela cells (setting [3]), the inhibition at 50 µM was determined as 25%.

As for `CC(C)[C@H](NC(=O)[C@@H](NC(=O)[C@H](CC(=O)O)NC(=O)OCc1ccccc1)C1Cc2ccccc2C1)C(=O)N[C@H](/C=C/S(=O)(=O)C(C)C)CC(=O)O` [Compound 68, Z-Asp-Indanylglycine-Val-Aspisopropyl vinyl sulfone], the IC50 on caspase-9 (setting [1]), at caspase-1 and on caspase-5 was more than 3.33 µM each time. Further, the values for the inhibition at 50 µM with Hela cells (setting [2]) and in the test with Hela cells (setting [3]) were 50% and 30%, respectively.

As to `CC(C)[C@H](NC(=O)[C@H](Cc1ccc(O)cc1)NC(=O)OCc1ccccc1)C(=O)N[C@@H](C)C(=O)N[C@H](/C=C/S(=O)(=O)c1ccccc1)CC(=O)O` [Compound 96, Z-Tyr-Val-Ala-Asp phenyl vinyl sulfone], the IC50 is more than 10 µM at caspase-9 (setting [1]), more than 10 µM on caspase-3, more than 10 µM on caspase-7 (setting [4]) and more than 3.33 µM on caspase-5.

In the case of `CS(=O)(=O)/C=C/[C@@H](N)CC(=O)O.Cc1ccc(S(=O)(=O)O)cc1` [Compound 93, Aspmethyl vinyl sulfone tosyl salt], on caspase-3, the “activity against caspase-3 (in words)” value is “devoid of any activity” and the IC50 was more than 10 µM.

As for `CC(C)(C)OC(=O)C[C@@H](/C=C/S(=O)(=O)c1ccccc1)NC(=O)OC(C)(C)C` [Compound 36, Boc-Asp-vinyl phenyl sulfone], the IC50 on caspase-3 was more than 2 µM.

For the molecule `CC(C)[C@H](NC(=O)[C@H](Cc1ccccn1)NC(=O)[C@H](CC(=O)O)NC(=O)OCc1ccccc1)C(=O)N[C@H](/C=C/S(=O)(=O)c1ccccc1)CC(=O)O` [Compound 85, Z-Asp-Ala(2′-pyridyl)-Val-Aspphenyl vinylsulfone], the IC50 at caspase-9 (setting [1]), on caspase-1 and on caspase-5 was more than 3.33 µM in each case. Also, the inhibition at 50 µM in the test with Hela cells (setting [3]) came out at 40%.
